# Data taken from PMC11173382, “In Vitro Investigations into the Potential Drug Interactions of Pseudoginsenoside DQ Mediated by Cytochrome P450 and Human Drug Transporters” (Molecules, 2024).
# Where two headings read alike, the source gives them in different places.
# Key:
# Format in all cases: in vitro ADME
# CYP2C9 = target: T1, CYP2C9 (Homo sapiens, UniProt P11712); test: CYP450 inhibition assay in human liver microsomes, CYP2C9; conditions: HLM 0.1 mg/mL; probe diclofenac 10 µM; 10 min
# T1 construct: tissue Corning 452117; host or cells: human liver microsomes
# T1 sequence (P11712 whole entry): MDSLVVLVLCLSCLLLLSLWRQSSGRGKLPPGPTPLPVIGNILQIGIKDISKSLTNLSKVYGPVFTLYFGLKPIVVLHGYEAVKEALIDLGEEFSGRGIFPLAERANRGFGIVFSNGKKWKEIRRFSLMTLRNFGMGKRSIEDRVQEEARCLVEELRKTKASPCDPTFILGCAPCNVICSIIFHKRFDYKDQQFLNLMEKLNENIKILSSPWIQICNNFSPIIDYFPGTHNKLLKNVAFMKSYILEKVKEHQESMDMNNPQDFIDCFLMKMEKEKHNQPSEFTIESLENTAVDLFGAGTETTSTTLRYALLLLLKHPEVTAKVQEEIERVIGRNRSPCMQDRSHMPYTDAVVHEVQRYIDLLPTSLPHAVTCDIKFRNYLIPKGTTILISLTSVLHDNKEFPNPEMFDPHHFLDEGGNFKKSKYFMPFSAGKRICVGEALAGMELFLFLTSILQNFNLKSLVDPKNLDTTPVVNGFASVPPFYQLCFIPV
# Protocol: (§1) To evaluate the reliability and reproducibility of the CYP450 inhibition assay, we measured the inhibitory effects of selected positive control inhibitors of each CYP450 enzyme in human liver microsomes (HLM, Table 1, Figure 2). The potency of inhibition was estimated by observing the alteration in concentration of metabolites of CYP450 substrates (Table 1).
# (§2) Reagents preparation. […] The stock solution of PDQ (10 mM) was prepared with methanol and further diluted to the range of 3 µM to 3 mM with methanol to ensure that the solvent of different PDQ samples contained the same amount (1%) of methanol.
# (§3) The stock solutions of the positive control inhibitors and the probe substrates of CYP450 enzymes were prepared in methanol.
# (§4) CYP450 inhibition assay. […] The assay was conducted in polypropylene 96-well plates (2.2 mL/well, Apricot Designs Inc., Covina, CA, USA).
# The total volume of the reaction is 200 μL. […] The substrates and analytes were analyzed by LC-MS/MS (API4000, Applied Biosystems, Singapore; HPLC, Shimadzu, Japan). […]
# (§5) Data analysis. […] The IC50 was determined by fitting the dependence of the relative remaining activity (y = Vi/V0) to the following three-parameter equation (Equation (1)). […]
# CYP3A4 = target: T2, CYP3A4 (Homo sapiens, UniProt P08684); test: CYP450 inhibition assay in human liver microsomes, CYP3A4 (midazolam and testosterone)
# T2 construct: tissue Corning 452117; host or cells: human liver microsomes
# T2 sequence (P08684 whole entry): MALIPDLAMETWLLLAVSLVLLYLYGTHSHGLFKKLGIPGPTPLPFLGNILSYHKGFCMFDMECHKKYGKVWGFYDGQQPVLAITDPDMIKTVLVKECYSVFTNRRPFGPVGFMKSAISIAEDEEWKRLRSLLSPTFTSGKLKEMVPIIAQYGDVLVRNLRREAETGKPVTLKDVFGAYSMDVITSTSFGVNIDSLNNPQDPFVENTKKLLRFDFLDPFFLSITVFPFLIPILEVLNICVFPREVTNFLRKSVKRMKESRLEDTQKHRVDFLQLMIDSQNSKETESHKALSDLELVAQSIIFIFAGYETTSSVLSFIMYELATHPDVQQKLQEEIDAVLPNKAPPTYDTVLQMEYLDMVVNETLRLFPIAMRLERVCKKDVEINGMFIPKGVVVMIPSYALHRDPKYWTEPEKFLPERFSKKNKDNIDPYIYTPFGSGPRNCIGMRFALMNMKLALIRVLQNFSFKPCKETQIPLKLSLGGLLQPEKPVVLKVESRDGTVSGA
# Protocol: as §1, §2, §3, §4
# The total volume of the reaction is 200 μL. The HLM mixtures (102 μL) containing individual probe substrates (Table 3), KH2PO4 buffer (100 mM, pH 7.4), and either PDQ or the positive control inhibitors (Table 3) were incubated for 10 min at 37 °C in a shaking incubator. Reactions were initiated by adding 98 μL NADPH (final concentration is 1.3 mM NADPH, 3 mM MgCl2 in 100 mM KH2PO4 buffer). The HLM reaction mixtures were shaken at 37 °C for various times (Table 4). The reaction time of CYP3A4 (midazolam), CYP2C19 and CYP2D6 were 3, 20 and 20 min, respectively, while the reactions of other CYP enzymes were terminated after 10 min. The reactions were quenched by adding 200 μL acetonitrile containing 3% formic acid and specific internal standards (Table 4). After shaking at 1000 rpm for 10 min, the reaction mixtures were centrifuged at 4000 rpm for 20 min. Supernatants were diluted with ultrapure water (Table 4) and shaken for 10 min at 1000 rpm. […] The substrates and analytes were analyzed by LC-MS/MS (API4000, Applied Biosystems, Singapore; HPLC, Shimadzu, Japan). […]
# as §5
# hOATP1B1 = target: T3, hOATP1B1 (Homo sapiens, UniProt Q9Y6L6); test: Substrates uptake assay, HEK293A-OATP1B1 cells (3H-ES); conditions: HEK293A-OATP1B1; 3H-ES 0.1 µM; 2 min
# T3 sequence (Q9Y6L6 1-691): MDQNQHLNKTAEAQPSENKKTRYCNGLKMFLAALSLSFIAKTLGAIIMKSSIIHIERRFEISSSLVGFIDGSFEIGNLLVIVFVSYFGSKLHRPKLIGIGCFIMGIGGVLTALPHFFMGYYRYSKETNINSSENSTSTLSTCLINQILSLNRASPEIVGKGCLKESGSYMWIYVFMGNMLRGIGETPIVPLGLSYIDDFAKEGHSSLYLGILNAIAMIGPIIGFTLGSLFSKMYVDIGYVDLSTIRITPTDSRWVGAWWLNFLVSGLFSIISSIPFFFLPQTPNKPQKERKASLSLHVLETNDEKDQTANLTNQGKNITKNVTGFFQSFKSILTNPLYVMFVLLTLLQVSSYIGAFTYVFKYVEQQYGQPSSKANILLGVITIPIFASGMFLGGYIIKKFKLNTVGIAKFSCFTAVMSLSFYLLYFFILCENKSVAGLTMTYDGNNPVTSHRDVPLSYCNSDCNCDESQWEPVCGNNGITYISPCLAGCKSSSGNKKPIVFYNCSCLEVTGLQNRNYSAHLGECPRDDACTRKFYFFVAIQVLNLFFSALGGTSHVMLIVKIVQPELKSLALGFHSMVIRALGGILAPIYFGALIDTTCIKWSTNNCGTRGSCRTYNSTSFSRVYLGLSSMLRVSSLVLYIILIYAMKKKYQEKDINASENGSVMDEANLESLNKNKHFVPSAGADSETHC
compound,measurement,setting,value
"CC(C)(O)[C@@H]1CC[C@@](C)([C@H]2CC[C@]3(C)[C@@H]2[C@H](O)C[C@@H]2[C@@]4(C)CC[C@H](O)C(C)(C)[C@@H]4CC[C@]23C)O1 [PDQ, (20S,24S)-dammar-20,24-epoxy-3β, 12β, 25-triol]",IC50,CYP2C9,11.7 µM
same,IC50,"CYP3A4; HLM 0.1 mg/mL, probe midazolam 2 µM, 3 min, read-out: IC50 on CYP3A4 (Midazolam)",2.02 µM
same,IC50,"CYP3A4; HLM 0.1 mg/mL, probe testosterone 40 µM, 10 min, read-out: IC50 on CYP3A4 (Testosterone)",6.79 µM
same,IC50,"CYP3A4; HLM, midazolam and testosterone as substrates, read-out: IC50 on CYP3A4 (range over both substrates)",2.02 to 6.79 µM
same,IC50,hOATP1B1,13.1 µM
